Source: patent US10835456B2, “Propyl gallate-containing vitamin preparations” (BASF SE, priority 2016, dated 2020)
Values joined by “and” are separate entries in the source; they are usually repeats but may differ in a detail not shown here. Identical values can stand only once.

Assays:
Assay type in all cases: physicochemical
[1] = Particle size after dissolution in water by photon correlation spectroscopy (Malvern Zetasizer Nano ZSP); conditions: PCS; for particle size / polydispersity index PDI: dry powder with propyl gallate added to the dispersion (Examples 1, 3b, 3c, 3d)
Procedure: The particle size is determined by means of a Malvern Zetasizer Nano ZSP.
30 g of citranaxanthin were suspended in 240 g of isopropanol together with 1.1 g of ascorbyl palmitate and, with setting of the pressure-limiting valve to 30 bar, mixed continuously with 390 g of isopropanol in a mixing chamber A. At a metering rate of 6 L/h on the suspension side and of 9 L/h on the solvent side, a mixing temperature of 170° C. was established in the mixing chamber A. After a residence time of 0.3 second, the molecularly disperse solution was mixed in mixing chamber B with a solution of 32 g of gelatin, 71.4 g of sucrose and 50 g of glucose syrup in 4000 g of water at a throughput rate of 100 L/h. After the solvent had been removed under reduced pressure in a distillation apparatus, an active ingredient dispersion was obtained, to which 8 g of sunflower oil and 8 g of propyl gallate were added. The propyl gallate was predissolved here in 200 mL of water and adjusted to pH 7 with NaOH. Subsequently, the dispersion was converted to a stable, water-soluble dry powder by spray drying. After dissolution in water, by photon correlation spectroscopy (PCS), a particle size of 386 nm (standard deviation 142.5, polydispersity index PDI 0.185, D(95): 660 nm) was measured (Malvern Zetasizer Nano ZSP).

[2] = Stress test: stability in premix mixture, stored at 40° C. and 70% humidity for 4 weeks, retention of vitamin content; conditions: for Retention Active ingredient content after 4-week premix test: Table 3b
Procedure: The stress test for the vitamins is configured such that specimens of 100 mg in each case of the formulation produced and 4 g of premix mixture are weighed into glass vessels. The premix mixture consists of 50% by weight of fine lime (particle size <1000 μm), 20% by weight of wheat bran (particle size <1000 μm), 20% by weight of 50% silica-supported choline chloride (particle size <1000 μm) and 10% by weight of trace element mixture (particle size 100-500 μm). The trace element mixture is composed of 46.78% by weight of FeSO4x7H2O (100-500 μm), 37.43% by weight of CuSO4x5H2O (100-500 μm), 11.79% by weight of ZnO (<500 μm), 3.61% by weight of MnO and 0.39% by weight of CoCO3. After addition of all ingredients, the specimens are mixed cautiously, with performance of the mixing mechanically or else by hand, and these specimens (A) are stored in a climate-controlled chamber at 40° C. and 70% humidity for 4 weeks. […]
For this purpose, specimens each of 100 mg of the formulation produced and 4 g of premix mixture are weighed out in glass vessels (50 mL glass vials). The premix mixture consists of 50% by weight of fine lime (particle size <1000 μm), 20% by weight of wheat bran (particle size <1000 μm), 20% by weight of 50% silica-supported choline chloride (particle size <1000 μm) and 10% by weight of trace element mixture (particle size 100-500 μm), said trace element mixture consisting of 46.78% by weight of FeSO4x7H2O (100-500 μm), 37.43% by weight of CuSO4x5H2O (100-500 μm), 11.79% by weight of ZnO (<500 μm), 3.61% by weight of MnO and 0.39% by weight of CoCO3. After addition of all ingredients, the specimens are mixed cautiously, where the mixing can be performed mechanically or else by hand, and these specimens (A) are stored in a climate-controlled chamber at 40° C. and 70% humidity for 4 weeks. An identical test is conducted with a comparative sample (B) which is of identical composition but which comprises, rather than propyl gallate, the same amount of ethoxyquin. […] The ratio of the contents after (A2), (B2) and before the storage (A1) and (B1) are used here to calculate the retention (A2/A1) or (B2/B1) of the samples. For the formulations of the invention, a quotient (A2/A1):(B2/B1) of at least 0.75 is determined here. Preferably, for the formulations of the invention, a quotient of at least 1 is obtained.
The stability of the particles thus produced was tested in a stress test. For this purpose, specimens each of 100 mg of the particles produced and 4 g of premix mixture were weighed into 50 mL glass bottles. The premix mixture consisted of 50% by weight of fine lime (particle size <1000 μm), 20% by weight of wheat bran (particle size <1000 μm), 20% by weight of 50% silica-supported choline chloride (particle size <1000 μm) and 10% by weight of trace element mixture (particle size 100-500 μm), and the trace element mixture of 46.78% by weight of FeSO4x7H2O (100-500 μm), 37.43% by weight of CuSO4x5H2O (100-500 μm), 11.79% by weight of ZnO (<500 μm), 3.61% by weight of MnO and 0.39% by weight of CoCO3. After addition of all ingredients, the specimens were carefully mixed by hand. These specimens were stored in a climate-controlled chamber at 40° C. and 70% air humidity for 4 weeks. […]

[3] = Particle size after dissolution in water by photon correlation spectroscopy (Malvern Zetasizer Nano ZSP); conditions: PCS
[4] = Table 4b, D,L-α tocopherol 4% by wt. (in active ingredient phase) + propyl gallate 4% by wt. (in protective colloid phase)
[5] = Table 4b, mixed tocopherol 4% by wt. (in active ingredient phase) + propyl gallate 4% by wt. (in protective colloid phase)
[6] = dry powder with 4% by weight of propyl gallate and 4% by weight of butylhydroxytoluene
[7] = dry powder with 4% by weight of propyl gallate and 4% by weight of mixed tocopherol

Compound: CC1=C(/C=C/C(C)=C/C=C/C(C)=C/C=C/C=C(C)/C=C/C=C(C)/C=C/C2=C(C)CCCC2(C)C)C(C)(C)CCC1 [β-carotene]
- particle size [1]: 262 nm
- polydispersity index PDI [1]: 0.268
- Retention Active ingredient content after 4-week test ([2]; Table 3d, ethoxyquin 4% by wt., dispersion): 22.2%
- Retention Active ingredient content after 4-week test ([2]; Table 3d, propyl gallate 4% by wt., dispersion): 30.3%

Compound: CC(=O)/C=C/C(C)=C/C=C/C(C)=C/C=C/C=C(C)/C=C/C=C(C)/C=C/C1=C(C)CCCC1(C)C [Citranaxanthin]
- Retention Active ingredient content after 4-week test ([2]; Table 3a, propyl gallate 0% by wt., dispersion): 7.9%
- Retention Active ingredient content after 4-week test ([2]; Table 3a, propyl gallate 2% by wt., dispersion): 20.2%
- Retention Active ingredient content after 4-week test ([2]; Table 3a, propyl gallate 3% by wt., dispersion): 26.7%
- Retention Active ingredient content after 4-week test ([2]; Table 3a, propyl gallate 4% by wt., dispersion): 47.8%
- Retention Active ingredient content after 4-week test ([2]; Table 3a, propyl gallate 5% by wt., dispersion): 45.7%
- Retention Active ingredient content after 4-week test ([2]; Table 3a, propyl gallate 6% by wt., dispersion): 45.9%
- Retention Active ingredient content after 4-week test ([2]; Table 3a, propyl gallate 7% by wt., dispersion): 49.5%
- Retention Active ingredient content after 4-week test ([2]; Table 3a, propyl gallate 8% by wt., dispersion): 55.9%
- Retention Active ingredient content after 4-week test ([2]; Table 3a, propyl gallate 8.5% by wt., dispersion): 51.9%
- Retention Active ingredient content after 4-week test ([2]; Table 3a, propyl gallate 9% by wt., dispersion): 57.4%
- Retention Active ingredient content after 4-week test ([2]; Table 3a, propyl gallate 10% by wt., dispersion): 19.6%
- Retention Active ingredient content after 4-week test [2, 4]: 21.3%
- Retention Active ingredient content after 4-week test [2, 5]: 67.5%
- Retention Canthaxanthin after 4-week test ([2]; Table 5c, propyl gallate 0% by wt., mixed tocopherol 4% by wt.): 10.8%
- Retention Canthaxanthin after 4-week test ([2]; Table 5c, propyl gallate 4% by wt., mixed tocopherol 0% by wt.): 39.1%
- Retention Canthaxanthin after 4-week test ([2]; Table 5c, propyl gallate 4% by wt., mixed tocopherol 4% by wt.): 66.5%
- Retention Canthaxanthin after 4-week test ([2]; Table 5d, 4% by wt. of ethoxyquin): 79.3%
- Retention Canthaxanthin after 4-week test ([2]; Table 5d, propyl gallate 0% by wt., BHT 4% by wt.): 56.1% and 65.5% and 67.9%
- Retention Canthaxanthin after 4-week test ([2]; Table 5d, propyl gallate 4% by wt., BHT 0% by wt.): 61.2%
- Retention Canthaxanthin after 4-week test ([2]; Table 5d, propyl gallate 4% by wt., BHT 4% by wt.): 82.3%
- Retention Active ingredient content after 4-week test ([2]; propyl gallate 4% by wt. added to dispersion in solid form without pre-dissolution): 47.2% and 44.9%
- Retention Active ingredient content after 4-week test ([2]; propyl gallate 4% by wt. added to dispersion, dissolved in water pH 7): 46% and 49.4% and 47.8%
- Retention (active constituent after 4 weeks in the test) ([2]; propyl gallate 4% by wt. added to dispersion, pH of sprayed dispersion 4.5): 42.2%
- Retention (active constituent after 4 weeks in the test) ([2]; propyl gallate 4% by wt. added to dispersion, pH of sprayed dispersion 6): 39.1%
- Retention (active constituent after 4 weeks in the test) ([2]; propyl gallate 4% by wt. added to dispersion, pH of sprayed dispersion 7): 47.8%
- Retention (active constituent after 4 weeks in the test) ([2]; propyl gallate 4% by wt. added to dispersion, pH of sprayed dispersion 8): 49.4%
- Retention (active constituent after 4 weeks in the test) ([2]; propyl gallate 4% by wt. added to dispersion, pH of sprayed dispersion 9): 28.2%
- Retention (active constituent after 4 weeks in the test) ([2]; propyl gallate 4% by wt. added to dispersion, pH of sprayed dispersion 10): 36.4%
- Retention (active constituent after 4 weeks in the test) ([2]; propyl gallate 4% by wt. added to dispersion, pH of sprayed dispersion 11): 14.7%
- Retention Active ingredient content after 4-week test ([2]; propyl gallate 4% by wt. in colloid phase, pH of the colloid phase 8.5-9.5): 13.4%
- Retention Active ingredient content after 4-week test ([2]; propyl gallate 4% by wt. in colloid phase, pH preadjustment to 7, then adjustment to pH 8.5 at maximum): 44.1%
- particle size [3, 6]: 290 nm
- polydispersity index PDI [3, 6]: 0.180
- particle size [3, 7]: 280 nm
- polydispersity index PDI [3, 7]: 0.185

Compound: CC1=C(/C=C/C(C)=C/C=C/C(C)=C/C=C/C=C(C)/C=C/C=C(C)/C=C/C2=C(C)C(=O)CCC2(C)C)C(C)(C)CCC1=O [Canthaxanthin]
- D(95) ([1]; dry powder with propyl gallate added to the dispersion (Examples 1, 3b)): 594 nm
- particle size [1]: 290 nm
- polydispersity index PDI [1]: 0.193
- Retention Active ingredient content after 4-week premix test ([2]; propyl gallate 4%, dispersion): 61.2%
- Retention Active ingredient content after 4-week premix test ([2]; propyl gallate 6%, dispersion): 77.9%
- Retention Active ingredient content after 4-week premix test ([2]; propyl gallate 8%, dispersion): 83.3%
- Retention Active ingredient content after 4-week premix test ([2]; propyl gallate 9%, dispersion): 82.4%
- Retention Active ingredient content after 4-week premix test ([2]; propyl gallate 10%, dispersion): 69.8%
- Retention Active ingredient content after 4-week premix test ([2]; propyl gallate 12%, dispersion): 47.2%
- Retention Active ingredient content after 4-week test ([2]; Table 4a, D,L-α tocopherol 4% by wt., active ingredient phase): 45.7%
- Retention Active ingredient content after 4-week test ([2]; Table 4a, mixed tocopherol 4% by wt., active ingredient phase): 48.7%
- Retention Active ingredient content after 4-week test [2, 4]: 57.2%
- Retention Active ingredient content after 4-week test [2, 5]: 78.1%
- Retention Canthaxanthin after 4-week test ([2]; Table 5a, propyl gallate 0% by wt., mixed tocopherol 4% by wt.): 48.7%
- Retention Canthaxanthin after 4-week test ([2]; Table 5a, propyl gallate 4% by wt., mixed tocopherol 0% by wt.): 61.2%
- Retention Canthaxanthin after 4-week test ([2]; Table 5a, propyl gallate 4% by wt., mixed tocopherol 2% by wt.): 80.8%
- Retention Canthaxanthin after 4-week test ([2]; Table 5a, propyl gallate 4% by wt., mixed tocopherol 4% by wt.): 80.3%
- Retention Canthaxanthin after 4-week test ([2]; Table 5a, propyl gallate 6% by wt., mixed tocopherol 0% by wt.): 71.3%
- Retention Canthaxanthin after 4-week test ([2]; Table 5a, propyl gallate 8% by wt., mixed tocopherol 0% by wt.): 83.3%
- Retention Canthaxanthin after 4-week test ([2]; Table 5b, propyl gallate 4% by wt. (in protective colloid phase pH 7), mixed tocopherol 1% by wt. (in active ingredient phase)): 72.8%
- Retention Canthaxanthin after 4-week test ([2]; Table 5b, propyl gallate 4% by wt. (in protective colloid phase pH 7), mixed tocopherol 2% by wt. (in active ingredient phase)): 76%
- Retention Canthaxanthin after 4-week test ([2]; Table 5b, propyl gallate 4% by wt. (in protective colloid phase pH 7), mixed tocopherol 4% by wt. (in active ingredient phase)): 80.6%
